The text below walks through data of patent US8883782B2, “Spiro-tetracyclic ring compounds as beta-secretase modulators and methods of use” (Amgen Inc., priority 2010, dated 2014).

The target of experiment [1] is Beta Secretase enzyme (BACE) (Homo sapiens, UniProt P56817). The experiment is described as follows: In vitro enzymatic BACE FRET (fluorescence resonance energy transfer) assay. Particulars: average IC50, enzyme assay; read-out: BACE 1 FRET assay. The format is biochemical. Put shortly: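 Fluorescence read after Tris quench to neutral pH. Reaction: 50 nM fluorophore/quencher peptide substrate, 1 h, in 0.05 M acetate pH 4.2, 10% DMSO final, 100 uM genapol.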

Experiment [2] concerns Aβ40 in conditioned medium of cells stably expressing Amyloid Precursor Protein (APP). Briefly: In vitro BACE cell-based assay (Aβ40 in conditioned medium, sandwich ELISA). The settings on record: Homo sapiens, read-out: HEK cell assay. The essentials:
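Quantification relied on pAb40/6E10 sandwich ELISA with Europium fluorescence counts, and IC50 was fitted versus concentration.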
Background: ELISA stands for enzyme-linked immunosorbent assay.

Where [3] appears, read: HEK293, average IC50, HEK cells.

Read-outs that look alike come from different tables or passages of the source.

Sequence of Beta Secretase enzyme (BACE) (P56817 46-501, species assumed): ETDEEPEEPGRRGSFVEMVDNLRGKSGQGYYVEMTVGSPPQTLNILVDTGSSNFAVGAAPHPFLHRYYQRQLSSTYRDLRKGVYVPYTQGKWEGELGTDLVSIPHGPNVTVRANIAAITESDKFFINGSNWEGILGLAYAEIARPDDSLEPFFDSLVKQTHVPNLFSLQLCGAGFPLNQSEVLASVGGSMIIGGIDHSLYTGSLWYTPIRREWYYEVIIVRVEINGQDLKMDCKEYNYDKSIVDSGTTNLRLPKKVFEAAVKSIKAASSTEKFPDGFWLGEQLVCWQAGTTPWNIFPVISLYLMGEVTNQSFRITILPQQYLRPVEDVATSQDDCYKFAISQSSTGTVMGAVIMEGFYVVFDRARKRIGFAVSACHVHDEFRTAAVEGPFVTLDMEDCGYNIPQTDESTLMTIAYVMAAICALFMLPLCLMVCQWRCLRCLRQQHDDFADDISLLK

For `NC1=N[C@@]2(CS1)c1cc(-c3cccnc3)c(F)cc1Oc1c(F)cc(C3=CCCOC3)cc12` [Example 883, (4S)-7′-(5,6-dihydro-2H-pyran-3-yl)-3′,5′-difluoro-2′-(3-pyridinyl)spiro[1,3-thiazole-4,9′-xanthen]-2-amine], the IC50 turned out to be 0.3 nM in experiment [1] and 50 nM in experiment [2] (setting [3]).
The matching figures for `CC1(C#Cc2cnc3c(c2)[C@]2(CSC(N)=N2)c2cc(-c4ccc(F)nc4)ccc2O3)COC1` [Example 961, (5S)-7-(6-fluoro-3-pyridinyl)-3-((3-methyl-3-oxetanyl)ethynyl)spiro[chromeno[2,3-b]pyridine-5,4′-[1,3]thiazol]-2′-amine]: 1 nM and 18 nM.
For `NC1=N[C@@]2(CS1)c1cc(-c3cccnc3)ccc1Oc1c2cc(-c2cccnc2)nc1F` [Example 1031, (5S)-1-fluoro-3,7-di-3-pyridinylspiro[chromeno[2,3-c]pyridine-5,4′-[1,3]thiazol]-2′-amine], the IC50 worked out at 0.3 nM in experiment [1] and 3 nM in experiment [2] (HEK293, average IC50).
The corresponding values for `NC1=N[C@]2(CO1)c1cc(-c3cccnc3)ccc1Oc1c2cc(-c2ccnc(F)c2)c(F)c1F` [Example 1012, (4R)-3′,4′-difluoro-2′-(2-fluoro-4-pyridinyl)-7′-(3-pyridinyl)spiro[1,3-oxazole-4,9′-xanthen]-2-amine] are 59.7 nM and 1850 nM.
The corresponding values for `COc1ncc(-c2cc(F)c3c(c2)[C@]2(COC(N)=N2)c2cc(-c4cccnc4F)ccc2O3)cn1` [Example 213, (4S)-4′-fluoro-7′-(2-fluoro-3-pyridinyl)-2′-(2-methoxy-5-pyrimidinyl)spiro[1,3-oxazole-4,9′-xanthen]-2-amine] are 2.7 nM and 21.6 nM.
The corresponding values for `NC1=N[C@@]2(CS1)c1cc(-c3cccnc3F)ccc1Oc1c2cc(Cl)nc1F` [Example 1024, (5S)-3-chloro-1-fluoro-7-(2-fluoro-3-pyridinyl)spiro[chromeno[2,3-c]pyridine-5,4′-[1,3]thiazol]-2′-amine] are 6.6 nM and 1440 nM.
On to `N#Cc1cccc(-c2ccc3c(c2)[C@@]2(COC(N)=N2)c2cc(N4CC[C@@H](F)C4)ncc2O3)c1` [Example 425, 3-((5S)-2′-amino-3-((3R)-3-fluoro-1-pyrrolidinyl)spiro[chromeno[2,3-c]pyridine-5,4′-[1,3]oxazol]-7-yl)benzonitrile], for which the IC50 in experiment [1] was determined as 0.8 nM; in experiment [2] (setting [3]), 4.8 nM.
Take `NC1=N[C@@]2(CO1)c1cc(-c3cnccn3)ccc1Oc1c(F)cc(N3CCOCC3)cc12` [Example 269, (4S)-4′-fluoro-2′-(4-morpholinyl)-7′-(2-pyrazinyl)spiro[1,3-oxazole-4,9′-xanthen]-2-amine]: the IC50 in experiment [1] was determined as 5.2 nM; in experiment [2] (HEK293, average IC50), 18.8 nM.
The corresponding values for `CC(C)(C#N)COc1cc(F)c2c(c1)[C@]1(COC(N)=N1)c1cc(-c3ccc(F)nc3)ccc1O2` [Example 263, 3-(((4S)-2-amino-4′-fluoro-7′-(6-fluoro-3-pyridinyl)spiro[1,3-oxazole-4,9′-xanthen]-2′-yl)oxy)-2,2-dimethylpropanenitrile] are 2.3 nM and 13.3 nM.
As for `CC1(C)C=C(c2cnc3c(c2)[C@]2(COC(N)=N2)c2c(ccc(-c4cccnc4F)c2F)O3)CCO1` [Example 348, (5R)-3-(6,6-dimethyl-3,6-dihydro-2H-pyran-4-yl)-6-fluoro-7-(2-fluoro-3-pyridinyl)spiro[chromeno[2,3-b]pyridine-5,4′-[1,3]oxazol]-2′-amine], the IC50 in experiment [1] came out at 0.8 nM; in experiment [2] (HEK293, average IC50), 8.8 nM.
`NC1=N[C@@]2(CO1)c1cc(-c3cnccc3F)c(F)cc1Oc1ncc(C3=CCOCC3)cc12` [Example 646, (5S)-3-(3,6-dihydro-2H-pyran-4-yl)-8-fluoro-7-(4-fluoro-3-pyridinyl)spiro[chromeno[2,3-b]pyridine-5,4′-[1,3]oxazol]-2′-amine]: the figures for the IC50 in experiment [1] and in experiment [2] (setting [3]) were 2.2 nM and 16 nM, respectively.
Regarding `NC1=N[C@@]2(CO1)c1cc(-c3ccc(F)nc3)ccc1Oc1cnc(C3CCOCC3)cc12` [Example 363, (5S)-7-(6-fluoro-3-pyridinyl)-3-(tetrahydro-2H-pyran-4-yl)spiro[chromeno[2,3-c]pyridine-5,4′-[1,3]oxazol]-2′-amine], the IC50 stood at 33.7 nM in experiment [1] and 270 nM in experiment [2] (HEK293, average IC50).
In the case of `Cc1cc(-c2ccc3c(c2)[C@@]2(COC(N)=N2)c2cc(C#CC4(C)COC4)cnc2O3)cnc1F` [Example 468, (5S)-7-(6-fluoro-5-methyl-3-pyridinyl)-3-((3-methyl-3-oxetanyl)ethynyl)spiro[chromeno[2,3-b]pyridine-5,4′-[1,3]oxazol]-2′-amine], the IC50 is 7.4 nM in experiment [1] and 28.7 nM in experiment [2] (setting [3]).
On to `CC1(C#Cc2cnc3c(c2)[C@]2(COC(N)=N2)c2cc(-c4cncc(Cl)c4)c(F)cc2O3)COC1` [Example 626, (5S)-7-(5-chloro-3-pyridinyl)-8-fluoro-3-((3-methyl-3-oxetanyl)ethynyl)spiro[chromeno[2,3-b]pyridine-5,4′-[1,3]oxazol]-2′-amine], for which the IC50 in experiment [1] was determined as 0.8 nM; in experiment [2] (setting [3]) it was 6 nM.
Take `CC(C)(C#N)COc1ccc2c(c1)[C@@]1(COC(N)=N1)c1cc(C3=CCOCC3)cc(F)c1O2` [Example 441, 3-(((4S)-2-amino-7′-(3,6-dihydro-2H-pyran-4-yl)-5′-fluorospiro[1,3-oxazole-4,9′-xanthen]-2′-yl)oxy)-2,2-dimethylpropanenitrile]: the IC50 in experiment [1] was found to be 4 nM; in experiment [2] (setting [3]) it was 14.4 nM.
With `NC1=N[C@@]2(CO1)c1cc(-c3cnccc3F)ccc1Oc1ncc(C3=CCOCC3)cc12` [Example 358, (5S)-3-(3,6-dihydro-2H-pyran-4-yl)-7-(4-fluoro-3-pyridinyl)spiro[chromeno[2,3-b]pyridine-5,4′-[1,3]oxazol]-2′-amine], the IC50 in experiment [1] is 2.6 nM; in experiment [2] (HEK293, average IC50), 24.6 nM.
Turning to `CC1(C)C[C@H](c2cc3c(cn2)Oc2ccc(-c4cccnc4F)cc2[C@@]32COC(N)=N2)CCO1` [Example 377, (5S)-3-((4R)-2,2-dimethyltetrahydro-2H-pyran-4-yl)-7-(2-fluoro-3-pyridinyl)spiro[chromeno[2,3-c]pyridine-5,4′-[1,3]oxazol]-2′-amine], the IC50 was 5.9 nM in experiment [1] and 29.4 nM in experiment [2] (HEK293, average IC50).
On to `NC1=N[C@@]2(CO1)c1cc(-c3cccnc3)ccc1Oc1c2cc(-c2cccnc2)nc1F` [Example 494, (5S)-1-fluoro-3,7-di-3-pyridinylspiro[chromeno[2,3-c]pyridine-5,4′-[1,3]oxazol]-2′-amine], for which the IC50 in experiment [1] stood at 0.5 nM; in experiment [2] (setting [3]) it was 5.3 nM.
The corresponding values for `NC1=N[C@@]2(CO1)c1cc(-c3cccnc3F)ccc1Oc1c2cc(N2CCC(F)(F)CC2)nc1F` [Example 698, (5S)-3-(4,4-difluoro-1-piperidinyl)-1-fluoro-7-(2-fluoro-3-pyridinyl)spiro[chromeno[2,3-c]pyridine-5,4′-[1,3]oxazol]-2′-amine] are 0.3 nM and 6 nM.
Turning to `N#Cc1cccc(-c2ccc3c(c2)[C@@]2(COC(N)=N2)c2cc(N4CC[C@@H](F)C4)nc(F)c2O3)c1` [Example 919, 3-((5S)-2′-amino-1-fluoro-3-((3R)-3-fluoro-1-pyrrolidinyl)spiro[chromeno[2,3-c]pyridine-5,4′-[1,3]oxazol]-7-yl)benzonitrile], the IC50 in experiment [1] is 0.4 nM; in experiment [2] (setting [3]) it was 6 nM.
Turning to `NC1=N[C@@]2(CS1)c1cc(-c3cnccc3F)ccc1Oc1ncc(-c3cccnc3F)cc12` [Example 788, (5S)-3-(2-fluoro-3-pyridinyl)-7-(4-fluoro-3-pyridinyl)spiro[chromeno[2,3-b]pyridine-5,4′-[1,3]thiazol]-2′-amine], the IC50 was 5 nM in experiment [1] and 59 nM in experiment [2] (HEK293, average IC50).
Take `NC1=N[C@@]2(CO1)c1cc(-c3cccnc3F)ccc1Oc1c2cc(C2=CCCCO2)nc1F` [Example 657, (5S)-3-(3,4-dihydro-2H-pyran-6-yl)-1-fluoro-7-(2-fluoro-3-pyridinyl)spiro[chromeno[2,3-c]pyridine-5,4′-[1,3]oxazol]-2′-amine]: the IC50 in experiment [1] amounted to 0.4 nM; in experiment [2] (setting [3]), 5 nM.
On to `NC1=N[C@@]2(CO1)c1cc(-c3cccnc3)c(F)cc1Oc1c(F)cc(N3CCOCC3)cc12` [Example 861, (4S)-3′,5′-difluoro-7′-(4-morpholinyl)-2′-(3-pyridinyl)spiro[1,3-oxazole-4,9′-xanthen]-2-amine], for which the figures for the IC50 in experiment [1] and in experiment [2] (setting [3]) were 1 nM and 15 nM, respectively.
The corresponding values for `NC1=N[C@@]2(CO1)c1cc(-c3cccnc3F)ccc1Oc1c2cc([C@@H]2CCCCO2)nc1F` [Example 659, (5S)-1-fluoro-7-(2-fluoro-3-pyridinyl)-3-((2S)-tetrahydro-2H-pyran-2-yl)spiro[chromeno[2,3-c]pyridine-5,4′-[1,3]oxazol]-2′-amine] are 1.4 nM and 19 nM.
In the case of `CC(C)(C)/C=C/c1cc2c(cn1)Oc1ccc(-c3cncc(F)c3)cc1[C@@]21COC(N)=N1` [Example 372, (5S)-3-((1E)-3,3-dimethyl-1-buten-1-yl)-7-(5-fluoro-3-pyridinyl)spiro[chromeno[2,3-c]pyridine-5,4′-[1,3]oxazol]-2′-amine], the IC50 in experiment [1] amounted to 0.8 nM; in experiment [2] (HEK293, average IC50) it was 14.9 nM.
Regarding `CC1(COc2cc(F)c3c(c2)[C@]2(CSC(N)=N2)c2cc(-c4cncnc4)c(F)cc2O3)COC1` [Example 875, (4S)-3′,5′-difluoro-7′-((3-methyl-3-oxetanyl)methoxy)-2′-(5-pyrimidinyl)spiro[1,3-thiazole-4,9′-xanthen]-2-amine], the IC50 was 0.5 nM in experiment [1] and 8 nM in experiment [2] (setting [3]).
